Reference: patent US20240365773A1, “USE OF APOPTOSIS INHIBITORS FOR COLD STORAGE OF BLOOD PLATELETS” (DRK-BLUTSPENDEDIENST BADEN-WUERTTEMBERG-HESSEN GGMBH, priority 2021, published 2024)
Entries after “also recorded” stand apart in the source; their conditions may differ. Peptide text beside a SMILES is read from it. * marks the point of attachment. Cbz = O=C(OCc1ccccc1)*; CH2F = FC*

Experiments:
Format in all cases: cell-based, human
[1] = system: PLTs of 4° C. stored APCs; test: PLT viability of cold stored APCs treated with apoptosis inhibitors; details: for % PLT viability (day 10): 4° C. stored APC; for % viable cells: APCs stored at 4° C., G04 150 μM, forskolin 0.75 μM
Procedure: (§1) APCs were collected from healthy volunteers according to the German guidelines for haemotherapy. Ten individuals donated two units of APCs collected with FENWAL AMICUS (Amicus, Fresenius Kabi, Bad Homburg, Germany) and stored in plasma or in PAS (SSP+, Macopharma, Langen, Germany) at 35% final plasma concentration at 4° C. and RT.
(§2) Appropriate concentration for the inhibitors was determined prior to experiments, by titrating different concentrations. Directly after the collection, the APCs were stored for an hour without agitation. APCs were split further into different culture bags under aseptic conditions and stored in sterile, oxygen permeable bag (Fresenius Kabi A G, Bad Homburg, Germany). APCs were treated with 150 μM RhoA inhibitor G04, 0.75 μM […] (PKA) activator forskolin or 40 μM Caspase-9 inhibitor z-LEHD-fmk. […] APCs without any additions were used as a negative control. After 2 hours of treatment at RT, all the samples except the control at RT, were stored at 4° C. under constant gentle agitation. All samples were activated with thrombin receptor-activating peptide TRAP ([…], HART Biologicals) prior to measurements.

[2] = system: PLTs of 4° C. stored APCs; test: Measurement of mitochondrial transmembrane potential; details: APCs stored at 4° C.
Procedure: as §1, §2

cold-stored PLTs [3] = test: Clot formation (thromboelastometer); details: vs buffer/untreated
Procedure: The clot formation was analysed using a 6-channel thromboelastometer device (Clot Pro, Enicor, Germany) and parameters were automatically calculated by dedicated software.

[4] = system: PLTs of 4° C. stored APCs; test: Platelet aggregation (light transmission PLT aggregation assay); details: for % PLT aggregation (day 7): 4° C. stored APC
Procedure: as §1, §2
PLT function was analyzed by FC and light transmission PLT aggregation assay (LTA) using a 4-channel-aggregometer (Labitec, Ahrensburg, Germany). Collagen (8 μg/ml), ristocetin ([…]) (both Molab, Langenfeld, Germany) or ADP (80 μM, Nycomed, Konstanz, Germany) were used as inductors.

cold-stored PLTs [5] = test: Platelet adhesion on fibrinogen coated coverslips; details: for Number of adherent cells (day 4) / Number of adherent cells (day 7): cold-stored PLTs, TRAP; for Number of adherent cells (day 4): day 4, fibrinogen coated coverslips; for Number of adherent cells (day 7): day 7, fibrinogen coated coverslips
Procedure: Coverslips (Corning, New York, USA) were coated with […] of fibrinogen (Sigma Aldrich, Munich, Germany). After 4 and 7 days of storage PLTs (1×10^8 PLTs/mL) were seeded on coverslips and incubated for 1 hour at room temperature (RT) with TRAP (0.1 mM, Hart Biologicals, Hartlepool, UK). The adherent cells were fixed with 4% paraformaldehyde for 20 minutes (min) at RT. Images were captured from 5 different microscopic fields/coverslips (×100, Olympus IX73, Tokyo, Japan).

[6] = system: PLTs of 4° C. stored APCs; test: Functional analysis of cold stored APCs (all functional parameters); details: treated vs untreated
Procedure: PLTs (10×10^6/mL) were incubated with TRAP6 (20 μM) for 30 min at 37° C., fixed with 4% PFA for 20 min at RT. The expression of CD62P (CLBThromb/6, Beckman Coulter) and CD63 (CLBGran/12, Beckman Coulter) was determined by FC. The conformational changes of glycoproteins (GPs) IIb/IIIa complex upon activation with TRAP were detected by PAC-1-antibody (BD Bioscience) using FC. PLT function was analyzed by FC and light transmission PLT aggregation assay (LTA) using a 4-channel-aggregometer (Labitec, Ahrensburg, Germany). Collagen (8 μg/ml), ristocetin ([…]) (both Molab, Langenfeld, Germany) or ADP (80 μM, Nycomed, Konstanz, Germany) were used as inductors.

PLTs from APCs = test: Determination of apoptosis (Annexin V-FITC staining); details: for % Apoptosis (day 10): 4° C. stored APC; for % apoptotic cells: APCs stored at 4° C., forskolin 0.75 μM, z-LEHD-fmk 40 μM
Procedure: as §1, §2
PLTs from APCs were washed, resuspended with 1 mM CaCl2 and stained with Annexin V-FITC (Beckman Coulter) for 60 min at RT. Freshly isolated PLTs were incubated with 10 μM ionomycin (Abcam, Cambridge, UK) and used as positive control.

cold-stored PLTs [7] = test: Thrombin generation (calibrated automated thrombogram); details: each storage time point, vs buffer/untreated
Procedure: Thrombin generation was quantified performing a fluorescence based-assay using a calibrated automated thrombogram system (CAT, Stago, Maastricht, Netherlands). The fluorescence signal was acquired for 60 min with a 390-nm […] excitation/460-nm emission filter set.

SMILES | % PLT viability (day 10) ([1]; day 10) [%] | % viable cells ([1]; day 10, z-LEHD-fmk 40 μM) [%] | PLT viability / survival (in words) ([1]; cold stored APCs) | mitochondrial transmembrane potential ΔΨm MFI ([2]; day 10) [MFI] | clot formation (MCF, maximum clot firmness), in words (cold-stored PLTs [3]) | % PLT aggregation (day 7) [4] | PLT aggregation (in words) ([4]; cold stored APCs, day 4) | PLT adhesion, number of adherent cells (in words) (cold-stored PLTs [5]; cold-stored PLTs after 4 and 7 days of storage, vs buffer/untreated) | Number of adherent cells (day 4) (cold-stored PLTs [5]) | Number of adherent cells (day 7) (cold-stored PLTs [5]) | PLT functions / functional parameters (overall, in words) [6] | % Apoptosis (day 10) (PLTs from APCs; day 10) [%] | % apoptotic cells (PLTs from APCs; day 7) [%] | % apoptotic cells (PLTs from APCs; day 10, G04 150 μM) [%] | apoptosis (in words) (PLTs from APCs; cold stored APCs) | thrombin generation (AUC, area under the curve), in words (cold-stored PLTs [7]) | % viable cells ([1]; day 7) [%] | mitochondrial transmembrane potential ΔΨm MFI ([2]; day 7) [MFI]
COC(=O)CC[C@H](NC(=O)[C@H](CC(C)C)NC(=O)OCc1ccccc1)C(=O)N[C@@H](Cc1cnc[nH]1)C(=O)N[C@@H](CC(=O)OC)C(=O)CF [z-LEHD-fmk] (Cbz-LE(OMe)HD(OMe)-CH2F) | 60.38 | 60.38 | partially restores PLT viability | 6.26 | no significant impact | No significant effect | tendency of decreased PLT aggregation was observed at day 4 after the treatment, but it was not significant | no significant impact | No significant effect | No significant effect | no significant impact; also recorded: does not affect the diminished PLT function; also recorded: does not affect PLT functions | 39 | 9.85 | 39.00 | decreases apoptosis | no significant impact | – | –
C=C[C@@]1(C)CC(=O)[C@]2(O)[C@@]3(C)[C@@H](O)CCC(C)(C)[C@@H]3[C@H](O)[C@H](OC(C)=O)[C@@]2(C)O1 [forskolin] | 58.95 | 58.95 | – | 11.02 | – | No significant effect | – | – | No significant effect | No significant effect | – | 33 | 9.3 | 33 | – | – | 87.1 | 17.88
